Experimental data published in PubChem BioAssay AID2060609 (Molecular Pharmacology Branch, DTP, NCI, 2025).

Test system: 855422-203-R-J1-PDC complex spheroids, viability
Assay: Anticancer human tumor 855422-203-R-J1-PDC patient-derived bladder carcinoma cell line growth inhibition [CLK]
Settings: for IC50: curve of first compound; for viability, T/C: stronger effect = lower value
How it was run: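 Patient-derived tumor cells grown as complex spheroids with HUVEC endothelial cells and mesenchymal stem cells, treated with drug combinations. Concentrations descend in half-log steps from near clinical Cmax, or from 10 microM if Cmax unknown.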
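Further: spheroids exposed to drugs for seven days before readout.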
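Wherever viability, T/C is given: 100% = DMSO vehicle control wells.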

IC50 (second compound 0.0316 µM): > 10000 nM
IC50 (second compound 0.1 µM): 3540 nM
IC50 (second compound 0.316 µM): < 31.6 nM
IC50 (second compound 1 µM): < 31.6 nM
IC50 (second compound 3.16 µM): < 31.6 nM
IC50 (second compound 10 µM): < 31.6 nM
SMILES: CC(CO)NC(=O)c1cc(-c2ccc(Cl)cc2)nn(-c2cnn(C)c2)c1=O (configuration not stated) + CNC(=O)c1ccc(Nc2nc(OC3CCCC3)c3c(-c4ccc5nc(C)oc5c4)c[nH]c3n2)c(OC)c1
viability, T/C (second compound 0.0316 µM, first compound 0.0316 µM): 99%
viability, T/C (second compound 0.0316 µM, first compound 0.1 µM): 78.6%
viability, T/C (second compound 0.0316 µM, first compound 0.316 µM): 87.3%
viability, T/C (second compound 0.0316 µM, first compound 1 µM): 95%
viability, T/C (second compound 0.0316 µM, first compound 3.16 µM): 96%
viability, T/C (second compound 0.0316 µM, first compound 10 µM): 80.9%
viability, T/C (second compound 0.1 µM, first compound 0.0316 µM): 50.1%
viability, T/C (second compound 0.1 µM, first compound 0.1 µM): 50.6%
viability, T/C (second compound 0.1 µM, first compound 0.316 µM): 55%
viability, T/C (second compound 0.1 µM, first compound 1 µM): 63%
viability, T/C (second compound 0.1 µM, first compound 3.16 µM): 46%
viability, T/C (second compound 0.1 µM, first compound 10 µM): 42.5%
viability, T/C (second compound 0.316 µM, first compound 0.0316 µM): 23%
viability, T/C (second compound 0.316 µM, first compound 0.1 µM): 21.9%
viability, T/C (second compound 0.316 µM, first compound 0.316 µM): 22.9%
viability, T/C (second compound 0.316 µM, first compound 1 µM): 22.4%
viability, T/C (second compound 0.316 µM, first compound 3.16 µM): 20.8%
viability, T/C (second compound 0.316 µM, first compound 10 µM): 21.8%
viability, T/C (second compound 1 µM, first compound 0.0316 µM): 18.8%
viability, T/C (second compound 1 µM, first compound 0.1 µM): 19.7%
viability, T/C (second compound 1 µM, first compound 0.316 µM): 19.8%
viability, T/C (second compound 1 µM, first compound 1 µM): 20.7%
viability, T/C (second compound 1 µM, first compound 3.16 µM): 20.5%
viability, T/C (second compound 1 µM, first compound 10 µM): 21%
viability, T/C (second compound 3.16 µM, first compound 0.0316 µM): 24.3%
viability, T/C (second compound 3.16 µM, first compound 0.1 µM): 20.9%
viability, T/C (second compound 3.16 µM, first compound 0.316 µM): 22.7%
viability, T/C (second compound 3.16 µM, first compound 1 µM): 22.2%
viability, T/C (second compound 3.16 µM, first compound 3.16 µM): 22.3%
viability, T/C (second compound 3.16 µM, first compound 10 µM): 20%
viability, T/C (second compound 10 µM, first compound 0.0316 µM): 16.7%
viability, T/C (second compound 10 µM, first compound 0.1 µM): 21.2%
viability, T/C (second compound 10 µM, first compound 0.316 µM): 22.2%
viability, T/C (second compound 10 µM, first compound 1 µM): 20.5%
viability, T/C (second compound 10 µM, first compound 3.16 µM): 19.9%
viability, T/C (second compound 10 µM, first compound 10 µM): 20%
